Calls of active or inactive are those of the source. The calls are words filed in the database; no cut-off is given here.
Assays:
Homo sapiens [1] = organism: Homo sapiens; assay: Inhibition of PDGFR (unknown origin) by envision reader analysis
MDA-MB-231 [2] = assay: Effect on STAT3 level in human MDA-MB-231 cells incubated for 24 to 72 hrs by Western blot analysis; assay type: functional, cell-based; settings: time 24-72 hrs
NIH3T3 = assay: Anti-fibrotic activity in mouse NIH3T3 cells assessed as reduction in fibronectin expression incubated for 48 hrs by Western blot analysis; assay type: functional, cell-based
[3] = Cmax in Sprague-Dawley rat at 50 mg/kg, po; assay type: ADME, organism-based; settings: in vivo
[4] = Half life in Sprague-Dawley rat at 50 mg/kg, po; assay type: ADME, organism-based; settings: in vivo
BXPC-3 [5] = assay: Effect on E-cadherin expression in TGF-beta induced human BXPC-3 cells at 0.1 to 0.5 uM incubated for 24 hrs by immunofluorescence assay; assay type: functional, cell-based; settings: dose 0.1-0.5 µM
BXPC-3 [6] = assay: Induction of apoptosis in human BXPC-3 cells assessed as decrease in Bcl-2 expression at 0.1 to 1 uM incubated for 24 hrs by Western blot analysis; assay type: functional, cell-based; settings: dose 0.1-1 µM
[7] = Toxicity in mouse implanted with human BXPC-3 cells assessed as heart damage at 50 mg/kg, po by H and E staining based analysis; assay type: organism-based; settings: in vivo
BXPC-3 [8] = assay: Effect on AXL expression in human BXPC-3 cells; assay type: functional, cell-based
[9] = target: Tyrosine-protein kinase ABL1 (Homo sapiens) (UniProt P00519); assay: Inhibition of ABL1 (unknown origin) by envision reader analysis
[10] = Metabolic stability in rat liver microsome assessed as half life measured upto 240 mins by HPLC analysis; assay type: ADME; settings: liver microsomes
[11] = target: Vascular endothelial growth factor receptor 2 (Homo sapiens, UniProt P35968); assay: Inhibition of KDR (unknown origin) by envision reader analysis
[12] = AUC (0 to last) in Sprague-Dawley rat at 50 mg/kg, po; assay type: ADME, organism-based; settings: Sprague-Dawley, in vivo
[13] = Toxicity in mouse implanted with human BXPC-3 cells assessed as mortality at 25 to 50 mg/kg, po measured on day 11; assay type: organism-based; settings: in vivo, 264 h, dose 25-50 mg/kg, time 11 day
BXPC-3 [14] = assay: Antitumor activity against human BXPC-3 cells xenografted in mouse assessed as reduction in tumor weight at 25 mg/kg, po administered for 14 days; assay type: functional; set-up: scale not given: the % may be the effect or the level left; settings: time 14 day
[15] = Cytotoxicity against mouse NIH/3T3 cells assessed as cell viability incubated for 72 hrs by MTT assay; assay type: toxicity, cell-based, NIH3T3
A549 = assay: cells; settings: Homo sapiens, A549, 72 h
Description: Antiproliferative activity against human A549 cells assessed as cell viability incubated for 72 hrs by MTT assay

HUVEC [16] = assay: Effect on VEGFR expression in HUVEC cells at 0.5 to 2 uM incubated for 24 to 72 hrs by immunofluorescence assay; assay type: functional, cell-based; settings: Homo sapiens, dose 0.5-2 µM, time 24-72 hrs
BXPC-3 [17] = assay: Antitumor activity against human BXPC-3 cells xenografted in mouse assessed as effect on E-cadherin expression in tumor at 25 to 50 mg/kg, po administered for 14 days; assay type: functional, organism-based; settings: dose 25-50 mg/kg, time 14.0 day
BXPC-3 [18] = assay: Effect on N-cadherin expression in TGF-beta induced human BXPC-3 cells at 0.1 to 0.5 uM incubated for 24 hrs by immunofluorescence assay; assay type: functional, cell-based; settings: dose 0.1-0.5 µM
MDA-MB-231 [19] = assay: cells; settings: Homo sapiens, MDA-MB-231, 72 h
Description: Antiproliferative activity against human MDA-MB-231 cells assessed as cell viability incubated for 72 hrs by MTT assay

BXPC-3 [20] = assay: Induction of apoptosis in human BXPC-3 cells by annexin V-FITC/propidium iodide staining-based flow cytometry analysis; assay type: functional, cell-based
[21] = target: Serine/threonine-protein kinase SIK2 (Homo sapiens) (UniProt Q9H0K1); assay: Inhibition of QIK (unknown origin) by envision reader analysis
PC-9 = assay: cells; settings: Homo sapiens, PC-9, 72 h
Description: Antiproliferative activity against human PC-9 cells assessed as cell viability incubated for 72 hrs by MTT assay

HUVEC [22] = assay: Anti-angiogenesis activity in HUVEC assessed as reduction in tube formation at 0.5 to 2 uM incubated for 24 hrs by Calcein AM staining based light microscopic analysis; assay type: functional, cell-based; settings: Homo sapiens, dose 0.5-2 µM
[23] = Toxicity in mouse implanted with human BXPC-3 cells assessed as liver damage at 50 mg/kg, po by H and E staining based analysis; assay type: organism-based; settings: in vivo
[24] = Volume of distribution at steady state in Sprague-Dawley rat at 5 mg/kg, iv; assay type: ADME, organism-based; settings: in vivo, read-out: Vdss
[25] = Half life in Sprague-Dawley rat at 5 mg/kg, iv; assay type: ADME, organism-based; settings: in vivo
MDA-MB-231 [26] = assay: Down regulation of Ki67 expression in human MDA-MB-231 cells by immunofluorescence assay; assay type: functional, cell-based
BXPC-3 [27] = assay: Antitumor activity against human BXPC-3 cells xenografted in mouse assessed as reduction in Ki67 expression in tumor at 25 to 50 mg/kg, po administered for 14 days; assay type: functional, organism-based; settings: dose 25-50 mg/kg, time 14.0 day
Homo sapiens [28] = organism: Homo sapiens; assay: Inhibition of SRC (unknown origin) by envision reader analysis
BXPC-3 [29] = assay: Effect on STAT3 level in human BXPC-3 cells incubated for 24 to 72 hrs by Western blot analysis; assay type: functional, cell-based; settings: time 24-72 hrs
[30] = Oral bioavailability in Sprague-Dawley rat at 50 mg/kg; assay type: ADME, organism-based; settings: Sprague-Dawley, in vivo
BXPC-3 [31] = assay: Down regulation of Ki67 expression in human BXPC-3 cells by immunofluorescence assay; assay type: functional, cell-based
BXPC-3 [32] = assay: cells; settings: Homo sapiens, BXPC-3, 72 h
Description: Antiproliferative activity against human BXPC-3 cells assessed as cell viability incubated for 72 hrs by MTT assay

Mitochondrial membrane [33] = assay: Induction of mitochondrial membrane potential in mouse NIH/3T3 cells assessed as increase in green fluorescence intensity incubated for 48 hrs by JC-1 staining based flow cytometry; assay type: cell membranes
HUVEC [34] = assay: Inhibition of cell migration in human HUVEC cells assessed as decrease in migrating cells at 0.5 uM incubated for 24 hrs by wound healing assay; assay type: functional, cell-based
MDA-MB-231 [35] = assay: Induction of apoptosis in human MDA-MB-231 cells by annexin V-FITC/propidium iodide staining-based flow cytometry analysis; assay type: functional, cell-based
[36] = Cytotoxicity against human MCF-10A cells assessed as inhibition of cell growth; assay type: toxicity, cell-based
BXPC-3 [37] = assay: Antitumor activity against human BXPC-3 cells xenografted in mouse assessed as tumor growth inhibition at 50 mg/kg, po administered for 14 days; assay type: functional; settings: BXPC-3, 336 h, time 14 day, read-out: TGI
[38] = Antiproliferative activity against mouse NIH/3T3 cells cultured as 3D tumor spheroids assessed as cell viability incubated for 72 hrs by CCK-8 assay; assay type: toxicity, cell-based, NIH3T3
BXPC-3 [39] = assay: Inhibition of cell migration in human BXPC-3 cells assessed as decrease in cell migration incubated for 24 hrs by wound healing assay; assay type: functional, cell-based
[40] = Clearance in Sprague-Dawley rat at 5 mg/kg, iv; assay type: ADME, organism-based; settings: in vivo
MDA-MB-231 [41] = assay: Inhibition of cell migration in human MDA-MB-231 cells assessed as decrease in cell migration incubated for 24 hrs by wound healing assay; assay type: functional, cell-based
BXPC-3 [42] = assay: Antiproliferative activity against human BXPC-3 cells cultured as 3D tumor spheroids assessed as cell viability incubated for 7 days by CCK-8 assay; settings: BXPC-3, 168 h
Mitochondrial membrane [43] = assay: Induction of mitochondrial membrane potential in mouse NIH/3T3 cells assessed as decrease in red fluorescence intensity incubated for 48 hrs by JC-1 staining based flow cytometry; assay type: cell membranes

Serine/threonine-protein kinase SIK2 (Homo sapiens), sequence (Q9H0K1 whole entry, looked up): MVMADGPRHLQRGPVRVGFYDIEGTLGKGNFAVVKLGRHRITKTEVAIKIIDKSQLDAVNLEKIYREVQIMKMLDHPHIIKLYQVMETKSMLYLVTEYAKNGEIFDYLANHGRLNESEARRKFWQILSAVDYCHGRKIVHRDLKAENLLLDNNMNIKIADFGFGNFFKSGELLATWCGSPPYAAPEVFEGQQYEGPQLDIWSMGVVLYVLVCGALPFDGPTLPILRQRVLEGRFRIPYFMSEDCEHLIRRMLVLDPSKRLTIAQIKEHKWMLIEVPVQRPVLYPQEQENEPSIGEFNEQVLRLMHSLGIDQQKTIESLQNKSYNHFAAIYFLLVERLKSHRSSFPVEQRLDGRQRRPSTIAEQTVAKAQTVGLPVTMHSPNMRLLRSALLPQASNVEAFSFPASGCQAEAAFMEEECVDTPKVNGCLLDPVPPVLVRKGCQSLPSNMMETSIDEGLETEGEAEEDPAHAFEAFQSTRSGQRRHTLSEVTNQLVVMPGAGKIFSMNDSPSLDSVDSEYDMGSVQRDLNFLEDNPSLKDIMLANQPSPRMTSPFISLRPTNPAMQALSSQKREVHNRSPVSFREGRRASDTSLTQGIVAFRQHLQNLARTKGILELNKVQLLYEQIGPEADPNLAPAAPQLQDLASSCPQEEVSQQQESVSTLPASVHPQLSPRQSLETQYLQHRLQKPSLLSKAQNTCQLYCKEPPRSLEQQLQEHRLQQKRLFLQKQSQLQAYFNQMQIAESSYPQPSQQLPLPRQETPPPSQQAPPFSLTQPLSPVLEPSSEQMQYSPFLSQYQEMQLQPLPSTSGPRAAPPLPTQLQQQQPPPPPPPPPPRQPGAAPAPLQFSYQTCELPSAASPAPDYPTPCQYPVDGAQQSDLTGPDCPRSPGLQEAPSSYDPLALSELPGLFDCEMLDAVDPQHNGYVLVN
Vascular endothelial growth factor receptor 2, sequence (P35968 whole entry): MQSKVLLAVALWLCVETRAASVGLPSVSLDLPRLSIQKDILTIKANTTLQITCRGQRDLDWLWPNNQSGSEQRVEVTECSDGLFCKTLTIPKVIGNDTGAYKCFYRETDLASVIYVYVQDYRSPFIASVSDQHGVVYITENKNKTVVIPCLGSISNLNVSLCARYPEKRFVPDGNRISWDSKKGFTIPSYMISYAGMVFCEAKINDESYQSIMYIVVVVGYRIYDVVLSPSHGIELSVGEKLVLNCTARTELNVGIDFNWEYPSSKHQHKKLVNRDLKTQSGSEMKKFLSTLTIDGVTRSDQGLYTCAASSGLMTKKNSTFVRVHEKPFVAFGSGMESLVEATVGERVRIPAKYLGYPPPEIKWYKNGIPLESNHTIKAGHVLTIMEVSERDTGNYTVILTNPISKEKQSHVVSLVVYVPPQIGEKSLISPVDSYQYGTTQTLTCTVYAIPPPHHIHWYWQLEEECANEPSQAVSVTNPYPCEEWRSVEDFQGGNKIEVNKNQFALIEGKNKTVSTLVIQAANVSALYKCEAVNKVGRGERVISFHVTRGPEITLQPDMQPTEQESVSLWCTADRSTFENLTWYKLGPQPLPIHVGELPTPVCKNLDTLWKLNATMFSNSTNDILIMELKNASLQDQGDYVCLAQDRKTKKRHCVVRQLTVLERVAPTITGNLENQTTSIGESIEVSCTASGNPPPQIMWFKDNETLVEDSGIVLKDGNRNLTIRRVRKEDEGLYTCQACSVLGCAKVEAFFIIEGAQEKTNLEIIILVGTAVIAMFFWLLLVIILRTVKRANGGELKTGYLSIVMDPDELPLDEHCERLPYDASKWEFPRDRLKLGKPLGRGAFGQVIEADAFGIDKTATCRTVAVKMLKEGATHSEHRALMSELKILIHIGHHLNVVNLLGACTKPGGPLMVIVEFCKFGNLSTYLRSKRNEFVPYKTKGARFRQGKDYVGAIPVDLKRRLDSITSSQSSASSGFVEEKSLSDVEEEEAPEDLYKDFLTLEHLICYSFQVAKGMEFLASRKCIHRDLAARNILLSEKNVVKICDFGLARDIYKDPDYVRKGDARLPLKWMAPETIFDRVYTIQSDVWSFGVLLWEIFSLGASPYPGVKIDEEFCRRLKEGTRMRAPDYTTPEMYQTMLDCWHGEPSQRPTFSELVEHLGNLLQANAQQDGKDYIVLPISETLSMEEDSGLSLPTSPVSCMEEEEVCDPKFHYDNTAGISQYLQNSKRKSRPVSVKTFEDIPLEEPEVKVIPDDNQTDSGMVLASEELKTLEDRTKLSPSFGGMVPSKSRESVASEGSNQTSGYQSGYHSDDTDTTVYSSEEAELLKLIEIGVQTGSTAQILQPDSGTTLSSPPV
Tyrosine-protein kinase ABL1 (Homo sapiens), sequence (P00519 whole entry): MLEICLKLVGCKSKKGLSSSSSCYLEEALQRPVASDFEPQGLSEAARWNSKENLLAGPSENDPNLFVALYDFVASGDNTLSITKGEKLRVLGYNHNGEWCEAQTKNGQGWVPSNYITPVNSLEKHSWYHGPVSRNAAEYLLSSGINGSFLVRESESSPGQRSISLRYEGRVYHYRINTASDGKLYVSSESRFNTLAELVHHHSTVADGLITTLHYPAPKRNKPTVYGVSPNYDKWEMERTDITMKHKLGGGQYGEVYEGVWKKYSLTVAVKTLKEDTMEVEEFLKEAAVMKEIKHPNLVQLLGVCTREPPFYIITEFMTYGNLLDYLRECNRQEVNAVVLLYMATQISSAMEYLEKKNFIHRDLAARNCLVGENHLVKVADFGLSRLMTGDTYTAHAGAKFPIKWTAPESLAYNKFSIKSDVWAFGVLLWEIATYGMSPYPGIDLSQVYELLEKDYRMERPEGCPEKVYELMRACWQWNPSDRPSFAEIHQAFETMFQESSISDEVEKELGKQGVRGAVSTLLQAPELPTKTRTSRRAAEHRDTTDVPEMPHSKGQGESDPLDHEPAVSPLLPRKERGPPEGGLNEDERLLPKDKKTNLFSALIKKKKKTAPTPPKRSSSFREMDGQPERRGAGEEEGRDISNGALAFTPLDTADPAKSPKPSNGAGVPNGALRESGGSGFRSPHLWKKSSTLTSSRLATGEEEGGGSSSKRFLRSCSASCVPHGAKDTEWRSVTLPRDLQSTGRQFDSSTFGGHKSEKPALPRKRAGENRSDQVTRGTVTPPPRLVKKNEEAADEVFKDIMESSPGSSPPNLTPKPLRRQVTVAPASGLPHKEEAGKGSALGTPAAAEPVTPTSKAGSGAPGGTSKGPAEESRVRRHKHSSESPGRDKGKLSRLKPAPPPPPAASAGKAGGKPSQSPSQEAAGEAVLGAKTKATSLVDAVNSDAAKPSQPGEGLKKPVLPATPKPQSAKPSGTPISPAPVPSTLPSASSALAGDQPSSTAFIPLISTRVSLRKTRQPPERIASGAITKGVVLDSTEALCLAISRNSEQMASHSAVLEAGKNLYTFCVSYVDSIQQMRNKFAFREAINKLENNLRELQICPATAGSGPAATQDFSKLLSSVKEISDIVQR

CCN1CCN(C(C)C(=O)N(C)c2ccc(N/C(=C3\C(=O)Nc4cc(Cl)ccc43)c3ccccc3)cc2)CC1 (racemic)
inhibition (Homo sapiens [1]): Active
Activity (MDA-MB-231 [2]): inactive
Activity (NIH3T3): Active
Cmax [3]: 88 ng/mL
half-life [4]: 18.8 h
Activity (BXPC-3 [5]): Active
Activity (BXPC-3 [6]): Active
Activity [7]: Non-toxic
Activity (BXPC-3 [8]): Active
inhibition [9]: Active
half-life [10]: 0.518 h
IC50 [11]: 0.00152 µM
AUC(0-t) [12]: 1150 ng·h/mL
Activity [13]: Non-toxic
Activity (BXPC-3 [14]): 71%
IC50 at 72 h [15]: 1.14 µM
IC50 (A549): 0.25 µM
Activity (HUVEC [16]): Active
Activity (BXPC-3 [17]): Active
Activity (BXPC-3 [18]): Active
IC50 (MDA-MB-231 [19]): 1.16 µM
Activity (BXPC-3 [20]): Active
inhibition [21]: Active
IC50 (PC-9): 5.91 µM
Activity (HUVEC [22]): Active
Activity [23]: Non-toxic
Vd [24]: 12.8 L/kg
half-life [25]: 4.36 h
Activity (MDA-MB-231 [26]): Active
AC30 (BXPC-3 [27]): Active
inhibition (Homo sapiens [28]): Active
Activity (BXPC-3 [29]): Active
bioavailability [30]: 6.53%
Activity (BXPC-3 [31]): Active
IC50 (BXPC-3 [32]): 1.01 µM
Activity (Mitochondrial membrane [33]): Active
inhibition (HUVEC [34]): Active
Activity (MDA-MB-231 [35]): Active
IC50 [36]: > 10 µM
inhibition in vivo at 50 mg/kg (BXPC-3 [37]): 83%
IC50 at 72 h [38]: 2.31 µM
inhibition (BXPC-3 [39]): Active
clearance [40]: 46.5 mL/min/kg
inhibition (MDA-MB-231 [41]): Active
IC50 (BXPC-3 [42]): 1.62 µM
Activity (Mitochondrial membrane [43]): Active

Reference: ChEMBL document CHEMBL6087458, “The Discovery of a Novel AXL/Triple Angiokinase Inhibitor Based on 6-Chloro-Substituted Indolinone and Side Chain Methyl Substitution Inhibiting Pancreatic Cancer Growth and Metastasis” (J Med Chem, 2025)
